The assay addresses T1, 5-lipoxygenase (Rattus norvegicus, UniProt P12527).
T1 construct: 20,000xg supernatant from 6x10⁴ homogenized RBL-1 cells; endogenous in cells; host or cells: RBL-1 cells (homogenate, 20,000xg supernatant)
T1 sequence (P12527 1-673): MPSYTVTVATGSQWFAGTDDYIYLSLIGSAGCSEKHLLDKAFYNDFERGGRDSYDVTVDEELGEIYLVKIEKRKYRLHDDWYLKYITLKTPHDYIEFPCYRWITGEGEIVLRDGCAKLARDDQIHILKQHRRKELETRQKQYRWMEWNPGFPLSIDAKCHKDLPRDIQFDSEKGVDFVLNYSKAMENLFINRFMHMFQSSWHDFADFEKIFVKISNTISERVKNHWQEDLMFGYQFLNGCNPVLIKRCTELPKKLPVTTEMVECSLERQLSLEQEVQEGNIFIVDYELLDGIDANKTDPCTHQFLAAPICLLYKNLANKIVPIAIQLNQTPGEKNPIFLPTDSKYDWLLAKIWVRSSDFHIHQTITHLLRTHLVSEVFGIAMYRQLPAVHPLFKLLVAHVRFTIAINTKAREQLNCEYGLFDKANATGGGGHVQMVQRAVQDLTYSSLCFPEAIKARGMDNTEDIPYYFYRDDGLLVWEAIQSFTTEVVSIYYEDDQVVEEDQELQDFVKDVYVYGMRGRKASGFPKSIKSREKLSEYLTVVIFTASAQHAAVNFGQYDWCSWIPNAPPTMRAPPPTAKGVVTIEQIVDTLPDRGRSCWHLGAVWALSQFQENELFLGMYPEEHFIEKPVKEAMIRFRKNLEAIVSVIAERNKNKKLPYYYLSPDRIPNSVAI
Briefly: Lipoxygenase IC50 determination (5-lipoxygenase inhibitory activity, RBL-1 cell supernatant). The format is biochemical. The note with it: 20,000xg supernatant from homogenized RBL-1 cells, radiolabelled arachidonic acid, 2% DMSO vehicle. As for the experimental part:
Reactions were initiated by addition of radiolabelled arachidonic acid and terminated by acidification and ether extraction. Reaction products were separated from nonconverted substrate by thin layer chromatography and measured by liquid scintillation spectroscopy. All treatments were evaluated in triplicate incubations.
For the molecule `CC(c1cc2ccccc2[nH]1)N(O)C(N)=O` (stereo not shown) [Example 53], the IC50 – broadly, the midpoint of a concentration-inhibition curve – amounted to 2900 nM.
Next, `CNC(=O)N(O)Cc1cc2ccccc2s1` [Example 46, N-hydroxy-N-benzo[b]thien-2-ylmethyl N'-methyl urea]: 1900 nM; `CC(c1cc2ccc(OCc3ccccc3)cc2o1)N(O)C(N)=O` (stereo not shown) [Example 51, N-hydroxy-N-[1-(6-benzyloxybenzo[b]fur-2-yl)ethyl] urea]: 250 nM; `CCNC(=O)N(O)C(C)c1cc2ccccc2s1` (stereo not shown) [Example 44, N-hydroxy-N-(1-benzo[b]thien-2-ylethyl) N'-ethylurea]: 1800 nM.
Next, `CN(C)C(=O)N(O)Cc1cc2ccccc2s1` [Example 7, N-hydroxy-N-benzo[b]thien-2-ylmethyl N',N'-dimethyl urea]: 1100 nM; `NC(=O)N(O)CC=Cc1cc2ccccc2s1` [Example 32, N-hydroxy-N-(3-benzo[b]thien-2-ylprop-2-enyl) urea]: 350 nM.
Next, `CC(c1cn(C)c2ccccc12)N(O)C(N)=O` (stereo not shown) [Example 17, N-hydroxy-N-(1-(1-methylindol-3-yl)ethyl) urea]: 2800 nM; `CC(=O)N(O)CC=Cc1cc2ccccc2s1` [Example 31, N-hydroxy-N-(3-benzo[b]thien-2-ylprop-2-enyl) acetamide]: 270 nM; `CC(=O)N(O)C(C)c1csc2ccccc12` (stereo not shown) [Example 8, N-hydroxy-N-(1-benzo[b]thien-3-ylethyl) acetamide]: 1400 nM.
Molecule `CNC(=O)N(O)C(C)c1cc2ccc(OCc3ccccc3)cc2o1` (stereo not shown) [Example 52, N-hydroxy-N-[1-(6-benzyloxybenzo[b]fur-2-yl)ethyl]N'-methyl urea] gave a half-inhibitory concentration (IC50) of 200 nM.
The molecule `CNC(=O)N(O)C(C)c1cn(C)c2ccccc12` (stereo not shown) [Example 18, N-hydroxy-N-(1-(1-methylindol-3-yl)ethyl) N'-methyl urea] had a 50% inhibitory concentration (IC50) of 3700 nM.
Next, `CCNC(=O)N(O)Cc1cc2ccccc2s1` [Example 47, N-hydroxy-N-benzo[b]thien-2-ylmethyl-N'-ethyl urea]: 1000 nM; `CC(c1cc2ccccc2o1)N(O)C(N)=O` (stereo not shown) [Example 15, N-hydroxy-N-(1-benzo[b]fur-2-ylethyl) urea]: 2700 nM.
`CC(c1cc2cc(F)ccc2s1)N(O)C(N)=O` (stereo not shown) [Example 29, N-hydroxy-N-[1-(5-fluorobenzo[b]thien-2-yl)ethyl] urea] showed an IC50 of 500 nM.
Next, `NC(=O)N(O)Cc1cc2ccccc2o1` [Example 49, N-hydroxy-N-benzo[b]fur-2-ylmethyl urea]: 8200 nM; `Cc1ccc(C)c2sc(C(C)N(O)C(N)=O)cc12` (stereo not shown) [Example 28, N-hydroxy-N-[1-(4,7-dimethylbenzo[b]thien-2-yl)ethyl] urea]: 400 nM.
`CC(c1cc2ccccc2s1)N(O)C(=O)N(C)C` (stereo not shown) [Example 4, N-hydroxy-N-(1-benzo[b]thien-2-ylethyl) N'N'-dimethyl urea] gave an IC50 of 540 nM.
Next, `COc1cccc2cc(C(C)N(O)C(N)=O)oc12` (stereo not shown) [Example 34]: 1900 nM.
Next, `CC(c1cc2ccccc2s1)N(O)C=O` (stereo not shown) [Example 20, N-hydroxy-N-(1-benzo[b]thien-2-ylethyl) formamide]: 3000 nM; `CNC(=S)N(O)C(C)c1cc2ccccc2s1` (stereo not shown) [Example 45, N-hydroxy-N-(1-benzo[b]thien-2-ylethyl) N'-methyl thiourea]: 190 nM.
Next, `CC(C1Cc2ccccc2O1)N(O)C(N)=O` (stereo not shown) [Example 42, N-hydroxy-N-[1-(2,3-dihydrobenzo[b]fur-yl)ethyl] urea]: 8500 nM; `CC(=O)n1c(C(C)N(O)C(N)=O)cc2ccccc21` (stereo not shown) [Example 39, N-hydroxy-N-[1-(1-acetylindol-2-yl)ethyl] urea]: 4000 nM; `CC(c1cc2ccccc2n1S(C)(=O)=O)N(O)C(N)=O` (stereo not shown) [Example 40, N-hydroxy-N-[1-(1-methanesulfonylindol-2-yl)ethyl] urea]: 3000 nM.
Regarding `CC(c1csc2ccccc12)N(O)C(N)=O` (stereo not shown) [Example 9, N-hydroxy-N-(1-benzo[b]thien-3-ylethyl) urea], the midpoint of inhibition, the IC50, lay at 1300 nM.
Next, `CC(Cc1cc2ccccc2s1)N(O)C(N)=O` (stereo not shown) [Example 30, N-hydroxy-N-(2-benzo[b]thien-2-yl-1-methylethyl) urea]: 460 nM; `CC(c1cc2ccccc2s1)N(O)C(=O)NO` (stereo not shown) [Example 43, N,N'-dihydroxy-N-(1-benzo[b]thien-2-ylethyl) urea]: 510 nM; `CC(=O)N(O)C(C)c1cn(C)c2ccccc12` (stereo not shown) [Example 16, N-hydroxy-N-(1-(1-methylindol-3-yl)ethyl) acetamide]: 2600 nM.
Next, `CC(C)CC(c1cc2ccccc2s1)N(O)C(N)=O` (stereo not shown) [Example 48]: 200 nM; `CC(=O)N(O)C(C)C1=Cc2ccccc2S1(=O)=O` (stereo not shown) [Example 12, N-hydroxy-N-[1-benzo[b]thien-2-ylethyl) acetamide 1,1-dioxide]: 21000 nM.
Next, `CC(c1cc2ccccc2s1)N(O)C(N)=S` (stereo not shown) [Example 25, N-hydroxy-N-(1-benzo[b]thien-2-ylethyl) thiourea]: 190 nM; `CC(c1cc2cc(Cl)ccc2[nH]1)N(O)C(N)=O` (stereo not shown) [Example 38]: 1000 nM; `CC(c1cc2ccccc2n1C)N(O)C(N)=O` (stereo not shown) [Example 24, N-hydroxy-N-(1-(1-methylindol-2-yl)ethyl) urea]: 1600 nM.
`CCOc1cccc2cc(C(C)N(O)C(N)=O)oc12` (stereo not shown) [Example 36]: the 50% inhibitory concentration (IC50) was 3500 nM.
For the molecule `CC(C)C(=O)N(O)C(C)c1cc2ccccc2s1` (stereo not shown) [Example 21, N-hydroxy-N-(1-benzo[b]thien-2-ylethyl) 2-methylpropionamide], the IC50 was determined as 380 nM.
Next, `Cc1c(C(C)N(O)C(N)=O)sc2ccccc12` (stereo not shown) [Example 10, N-hydroxy-N-[1-(3-methylbenzo[b]thien-2-yl)ethyl] urea]: 540 nM; `CNC(=O)N(O)Cc1cc2ccccc2o1` [Example 50, N-hydroxy-N-benzo[b]fur-2-ylmethyl N'-methyl urea]: 2300 nM; `CC(c1cc2cc(Cl)cc(Cl)c2o1)N(O)C(N)=O` (stereo not shown) [Example 33, N-hydroxy-N-[1-(5,7-dichlorobenzo[b]fur-2-yl)ethyl] urea]: 360 nM.

Values taken from patent EP0279263B1, “Indole, benzofuran, benzothiophene containing lipoxygenase inhibiting compounds” (ABBOTT LABORATORIES, priority 1987, dated 1988).
